Values of other authors, collected in patent publication US6709866B2, “Methods for enhancing survival of a neuron” (Aegera Therapeutics, Inc., priority 1996, dated 2004).

Experiments:
[1] = system: motoneurons; conditions: literature
[2] = system: hippocampal cultures; conditions: 100 pM
[3] = system: primary hippocampal, cortical and septal cultures; conditions: Cheng et al. 1994

CCSCc1ccc2c(c1)c1c3c(c4c5cc(CSCC)ccc5n5c4c1n2[C@H]1C[C@](O)(C(=O)OC)[C@]5(C)O1)CNC3=O [CEP1347]
motoneuron death and loss of ChAT in vivo [1]: prevents developmentally programmed motoneuron death and loss of ChAT in adult motoneurons

C[C@]12O[C@H](C[C@]1(O)C(=O)O)n1c3ccccc3c3c4c(c5c6ccccc6n2c5c31)CNC4=O [K252b]
tyrosine phosphorylation of multiple proteins (40 to 200 kDa) [2]: enhance tyrosine phosphorylation

O=c1c(-c2ccc(O)cc2)coc2cc(O)cc(O)c12 [genistein]
effect on the neuroprotective effects of K252-like compounds [3]: blocked
